Like-named read-outs stand apart in the source and are kept apart here. A value given as a limit tells only on which side of the number the result lay.

These results are taken from patent publication US8846951B2 (AbbVie Inc., priority 2009, dated 2014).

One assay concerns the target T1, 5HT2C receptors (Homo sapiens, UniProt P28335).
T1 sequence (P28335 33-458): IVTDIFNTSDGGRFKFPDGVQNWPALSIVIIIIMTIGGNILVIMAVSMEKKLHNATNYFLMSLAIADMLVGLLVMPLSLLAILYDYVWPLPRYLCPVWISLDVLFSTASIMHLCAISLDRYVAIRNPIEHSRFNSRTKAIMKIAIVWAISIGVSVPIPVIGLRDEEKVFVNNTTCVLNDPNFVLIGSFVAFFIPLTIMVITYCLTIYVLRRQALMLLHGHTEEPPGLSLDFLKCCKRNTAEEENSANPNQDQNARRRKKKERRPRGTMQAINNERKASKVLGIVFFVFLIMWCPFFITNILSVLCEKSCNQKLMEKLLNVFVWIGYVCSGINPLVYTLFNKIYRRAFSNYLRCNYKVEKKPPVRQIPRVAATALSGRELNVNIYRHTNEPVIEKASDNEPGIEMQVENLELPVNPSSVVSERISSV
The assay can be described thus: Human 5-HT2C functional high throughput screening assay in CHO-K1 cells (calcium flux). The format is cell-based. Set-up: expressed in transfected cells; host or cells: CHO-K1 cells. The conditions noted are these: for EC50: CHO-K1 cells, calcium flux; for Emax: CHO-K1, 5-HT2C, maximum functional response as percentage relative to the effect of serotonin. The procedure, abridged: (§1)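 CHO-K1 cells overexpressing human 5-HT2C or 5-HT2B were serum-starved overnight and loaded with Ca4 dye plus 2.5 mM probenecid for 60 min at RT. Calcium flux was read on FLIPR (ex 480/em 530 nm, 25° C) over 3 min after addition of compound, tested from 10 μM in 1:10 steps over 6 points with 0.2% DMSO. EC50 and Emax relative to serotonin came from a 4-parameter logistic fit.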
(A change in cytosolic calcium serves as a functional read-out for many receptors and channels.)

In a further assay the target is T2, 5HT2B receptors (Homo sapiens, UniProt P41595).
T2 construct: expressed in transfected cells; host or cells: CHO-K1 cells
The assay can be described thus: Human 5-HT2B functional high throughput screening assay in CHO-K1 cells (calcium flux). It counts as cell-based. The following applies: for EC50: CHO-K1 cells, calcium flux. Put shortly: as §1

Where [1] appears, read: 5-HT2C agonist activity, read-out: EC50.
Where [2] appears, read: 5-HT2B agonist activity, read-out: EC50.
[3] abbreviates: 5-HT2B, maximum functional response as percentage relative to the effect of serotonin.
Where [4] appears, read: CHO-K1, 5-HT2B, maximum functional response as percentage relative to the effect of serotonin, read-out: Emax.

T2 sequence (P41595 whole entry): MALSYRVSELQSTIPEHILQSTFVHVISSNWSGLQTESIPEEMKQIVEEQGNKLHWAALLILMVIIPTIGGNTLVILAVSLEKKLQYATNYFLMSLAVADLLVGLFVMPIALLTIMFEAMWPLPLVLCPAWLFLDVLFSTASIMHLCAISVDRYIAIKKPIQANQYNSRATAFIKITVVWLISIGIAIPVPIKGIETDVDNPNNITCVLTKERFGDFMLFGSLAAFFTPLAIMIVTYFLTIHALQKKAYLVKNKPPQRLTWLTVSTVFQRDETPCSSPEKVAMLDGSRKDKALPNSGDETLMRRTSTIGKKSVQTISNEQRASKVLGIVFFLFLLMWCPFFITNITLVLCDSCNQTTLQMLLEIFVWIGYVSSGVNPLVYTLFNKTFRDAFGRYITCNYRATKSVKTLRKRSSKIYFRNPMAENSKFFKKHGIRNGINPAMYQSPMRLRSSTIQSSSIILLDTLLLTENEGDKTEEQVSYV

For the compound `CN1C[C@H]2CNC(=O)c3cc(-c4ccc5c(c4)C(=O)CC5)ccc3[C@@H]2C1` (relative stereo) [Example 251, Trans-2-methyl-8-(3-oxo-2,3-dihydro-1H-inden-5-yl)-1,2,3,3a,4,5-hexahydrobenzo[c]pyrrolo[3,4-e]azepin-6(10bH)-one], the EC50 (in general, the concentration at which the effect is half-maximal) at 5HT2C receptors (setting [1]) is 400 nM; at 5HT2B receptors (setting [2]), over 10000 nM. The Emax (commonly the maximal effect, on the per cent scale that the assay sets) was over 120% on 5HT2C receptors (read-out: Emax) and “inactive” at 5HT2B receptors (setting [3]).

Regarding `O=C1NC[C@@H]2CNC[C@H]2c2ccc(-c3cccc(CCO)c3)cc21` (relative stereo) [Example 252, Trans-8-(3-(2-hydroxyethyl)phenyl)-1,2,3,3a,4,5-hexahydrobenzo[c]pyrrolo[3,4-e]azepin-6(10bH)-one], the EC50 on 5HT2C receptors (setting [1]) is 0.4 nM; at 5HT2B receptors (setting [2]), over 10000 nM. Further, the maximal effect (Emax) at 5HT2C receptors (read-out: Emax) was over 120%; on 5HT2B receptors (setting [3]), “inactive”.

Consider `CN1C[C@H]2CNC(=O)c3cc(-c4cccc(CCO)c4)ccc3[C@@H]2C1` (relative stereo) [Example 253, Trans-8-(3-(2-hydroxyethyl)phenyl)-2-methyl-1,2,3,3a,4,5-hexahydrobenzo[c]pyrrolo[3,4-e]azepin-6(10bH)-one], for which the figures for the EC50 at 5HT2C receptors (setting [1]) and on 5HT2B receptors (setting [2]) were 7 nM and over 10000 nM, respectively. The Emax at 5HT2C receptors (read-out: Emax) was over 120%; at 5HT2B receptors (setting [3]) it was “inactive”.

Take `c1ccc(CN2C[C@H]3CCNc4ccccc4[C@@H]3C2)cc1` (relative stereo) [Example 254, Trans-2-benzyl-1,2,3,3a,4,5,6,10b-octahydrobenzo[b]pyrrolo[3,4-d]azepine]: the EC50 at 5HT2C receptors (setting [1]) was determined as 1000 nM; at 5HT2B receptors (setting [2]), 800 nM. The Emax amounted to 105% at 5HT2C receptors (read-out: Emax) and 30% at 5HT2B receptors (setting [4]).

For `CCS(=O)(=O)c1cccc(-c2ccc3c(c2)C(=O)NC[C@@H]2CN(C)C[C@@H]32)c1` (relative stereo) [Example 255, Trans-8-(3-(ethylsulfonyl)phenyl)-2-methyl-1,2,3,3a,4,5-hexahydrobenzo[c]pyrrolo[3,4-e]azepin-6(10bH)-one], the figures for the EC50 on 5HT2C receptors (setting [1]) and at 5HT2B receptors (setting [2]) were 30 nM and over 10000 nM, respectively. The Emax on 5HT2C receptors (read-out: Emax) was 90%; at 5HT2B receptors (setting [3]), “inactive”.

With `O=C1NC[C@@H]2CN(Cc3ccccc3)C[C@H]2c2cc3ccccc3cc21` (relative stereo) [Example 256, Trans-2-benzyl-1,2,3,3a,4,5-hexahydronaphtho[2,3-c]pyrrolo[3,4-e]azepin-6(12bH)-one], the values for the EC50 on 5HT2C receptors (setting [1]) and at 5HT2B receptors (setting [2]) were 100 nM and over 10000 nM, respectively. Besides, the Emax was 90% at 5HT2C receptors (read-out: Emax) and “inactive” on 5HT2B receptors (setting [3]).

Take `O=C1NC[C@@H]2CNC[C@H]2c2cc3ccccc3cc21` (relative stereo) [Example 257, Trans-1,2,3,3a,4,5-hexahydronaphtho[2,3-e]pyrrolo[3,4-e]azepin-6(12bH)-one]: the concentration for a half-maximal effect (EC50) at 5HT2C receptors (setting [1]) amounted to 20 nM; on 5HT2B receptors (setting [2]) it was 60 nM. Further, the Emax on 5HT2C receptors (read-out: Emax) is 120%; at 5HT2B receptors (setting [4]) it was 40%.

As for `O=C1NC[C@@H]2CNC[C@H]2c2cc3c(cc21)CCCC3` (relative stereo) [Example 258, Trans-1,2,3,3a,4,5,8,9,10,11-decahydronaphtho[2,3-c]pyrrolo[3,4-e]azepin-6(12bH)-one], the maximal effect (Emax) is 100% at 5HT2C receptors and “inactive” at 5HT2B receptors (setting [3]). Also, the EC50 on 5HT2C receptors (EC50, 5-HT2C agonist activity) was 10 nM; at 5HT2B receptors (EC50, 5-HT2B agonist activity) it was over 10000 nM.

Turning to `COc1ccc2c(c1)[C@H]1CN(Cc3ccccc3)C[C@@H]1CCC2=O` (relative stereo) [Example 261, Trans-2-benzyl-9-methoxy-2,3,3a,4,5,10b-hexahydrobenzo[3,4]cyclohepta[1,2-c]pyrrol-6(1H)-one], the concentration for a half-maximal effect (EC50) on 5HT2C receptors (setting [1]) is 40 nM; at 5HT2B receptors (setting [2]), over 10000 nM. Moreover, the Emax on 5HT2C receptors (read-out: Emax) is over 120%; on 5HT2B receptors (setting [3]), “inactive”.

On to `c1ccc(CN2C[C@H]3CCOc4ncccc4[C@@H]3C2)cc1` (relative stereo) [Example 262, Trans-2-benzyl-2,3,3a,4,5,10b-hexahydro-1H-pyrrolo[3′,4′:4,5]oxepino[2,3-b]pyridine], for which the EC50 at 5HT2C receptors (setting [1]) was 2000 nM; at 5HT2B receptors (setting [2]) it was over 10000 nM. The Emax at 5HT2C receptors was 90%; on 5HT2B receptors (setting [3]), “inactive”.

Take `COc1ccc2c(c1)[C@H]1CNC[C@@H]1CCC2` (relative stereo) [Example 263, Trans-9-methoxy-1,2,3,3a,4,5,6,10b-octahydrobenzo[3,4]cyclohepta[1,2-c]pyrrole]: the figures for the Emax at 5HT2C receptors and at 5HT2B receptors (CHO-K1) were over 120% and 100%, respectively. Moreover, the EC50 on 5HT2C receptors (EC50, 5-HT2C agonist activity) is 100 nM; on 5HT2B receptors (EC50, 5-HT2B agonist activity), 20 nM.

In the case of `c1cnc2c(c1)[C@@H]1CNC[C@H]1CCO2` (relative stereo) [Example 264, Trans-2,3,3a,4,5,10b-hexahydro-1H-pyrrolo[3′,4′:4,5]oxepino[2,3-b]pyridine], the EC50 at 5HT2C receptors (setting [1]) stood at 1000 nM; on 5HT2B receptors (setting [2]), 3000 nM. The Emax on 5HT2C receptors was over 120%; on 5HT2B receptors (CHO-K1), 20%.

In the case of `O=C1NC[C@@H]2CNC[C@H]2c2ccc(C3CCOCC3)cc21` (relative stereo) [Example 265, Trans-8-(tetrahydro-2H-pyran-4-yl)-1,2,3,3a,4,5-hexahydrobenzo[c]pyrrolo[3,4-e]azepin-6(10bH)-one], the EC50 at 5HT2C receptors (setting [1]) is 100 nM; at 5HT2B receptors (setting [2]), over 10000 nM. Also, the Emax at 5HT2C receptors (read-out: Emax) was over 120%; on 5HT2B receptors (setting [3]), “inactive”.

Turning to `COc1ccc2c(c1)[C@H]1CNC[C@@H]1CC=C2` (relative stereo) [Example 266, Trans-9-methoxy-1,2,3,3a,4,10b-hexahydrobenzo[3,4]cyclohepta[1,2-c]pyrrole], the values for the Emax at 5HT2C receptors and on 5HT2B receptors (CHO-K1) were over 120% and 25%, respectively. The EC50 at 5HT2C receptors (EC50, 5-HT2C agonist activity) is 10 nM; on 5HT2B receptors (EC50, 5-HT2B agonist activity), 400 nM.

As to `CN1C[C@H]2CNC(=O)c3cc(C4CCOCC4)ccc3[C@@H]2C1` (relative stereo) [Example 267, Trans-2-methyl-8-(tetrahydro-2H-pyran-4-yl)-1,2,3,3a,4,5-hexahydrobenzo[c]pyrrolo[3,4-e]azepin-6(10bH)-one], the results for the EC50 at 5HT2C receptors (setting [1]) and on 5HT2B receptors (setting [2]) were 1000 nM and over 10000 nM, respectively. The Emax is 90% on 5HT2C receptors (read-out: Emax) and “inactive” at 5HT2B receptors (setting [3]).

In the case of `CN1C[C@H]2CCOc3ncccc3[C@@H]2C1` (relative stereo) [Example 268, Trans-2-methyl-2,3,3a,4,5,10b-hexahydro-1H-pyrrolo[3′,4′:4,5]oxepino[2,3-b]pyridine], the EC50 at 5HT2C receptors (setting [1]) is 7000 nM; at 5HT2B receptors (setting [2]) it was over 10000 nM. Further, the values for the Emax on 5HT2C receptors and at 5HT2B receptors (setting [3]) were 70% and “inactive”, respectively.

On to `CN1C[C@@H]2CCCc3ccccc3[C@@H]2C1` (relative stereo) [Example 269, Cis-2-methyl-1,2,3,3a,4,5,6,10b-octahydrobenzo[3,4]cyclohepta[1,2-c]pyrrole], for which the Emax at 5HT2C receptors was over 120%; at 5HT2B receptors (CHO-K1) it was 50%. The EC50 at 5HT2C receptors (EC50, 5-HT2C agonist activity) turned out to be 100 nM; on 5HT2B receptors (EC50, 5-HT2B agonist activity), 800 nM.

For `COc1cccc2c1[C@H]1CNC[C@@H]1CCO2` (relative stereo) [Example 272, Trans-10-methoxy-2,3,3a,4,5,10b-hexahydro-1H-[1]benzoxepino[4,5-c]pyrrole], the maximal response (Emax) at 5HT2C receptors is over 120%; at 5HT2B receptors (CHO-K1) it was 20%. In addition, the EC50 was 7 nM on 5HT2C receptors (EC50, 5-HT2C agonist activity) and 200 nM at 5HT2B receptors (EC50, 5-HT2B agonist activity).

Turning to `COc1cccc2c1[C@H]1CN(C)C[C@@H]1CCO2` (relative stereo) [Example 273, Trans-10-methoxy-2-methyl-2,3,3a,4,5,10b-hexahydro-1H-[1]benzoxepino[4,5-c]pyrrole], the maximal response (Emax) at 5HT2C receptors is over 120%; at 5HT2B receptors (CHO-K1), 35%. Also, the EC50 turned out to be 10 nM at 5HT2C receptors (EC50, 5-HT2C agonist activity) and 100 nM at 5HT2B receptors (EC50, 5-HT2B agonist activity).

With `O=C1NC[C@@H]2CNC[C@H]2c2ccc(-c3c(F)cccc3F)cc21` (relative stereo) [Example 276, Trans-8-(2,6-difluorophenyl)-1,2,3,3a,4,5-hexahydrobenzo[e]pyrrolo[3,4-c]azepin-6(10bH)-one], the values for the EC50 at 5HT2C receptors (setting [1]) and at 5HT2B receptors (setting [2]) were 8 nM and over 10000 nM, respectively. Besides, the Emax at 5HT2C receptors (read-out: Emax) is over 120%; at 5HT2B receptors (setting [3]) it was “inactive”.

On to `Cc1cc2c(cc1F)C(=O)NC[C@@H]1CNC[C@H]21` (relative stereo) [Example 279, Cis-8-fluoro-9-methyl-1,2,3,3a,4,5-hexahydrobenzo[c]pyrrolo[3,4-e]azepin-6(10bH)-one], for which the Emax is over 120% at 5HT2C receptors and 90% at 5HT2B receptors (CHO-K1). Moreover, the EC50 at 5HT2C receptors (EC50, 5-HT2C agonist activity) was 60 nM; at 5HT2B receptors (EC50, 5-HT2B agonist activity), 900 nM.
